Reference: ChEMBL document CHEMBL3396992, “Synthesis and biological evaluation of pyrazolylthiazole carboxylic acids as potent anti-inflammatory-antimicrobial agents” (2015)
Values after ≈ are worked out from the molar mass of the structure shown. Active and inactive are the calls of the source. The rule behind the calls is not given here.

Columns and labels:
[1] = tested on: Rattus norvegicus; experiment: Antiinflammatory activity against carrageenan-induced paw edema male Wistar albino rat at 50 mg/kg, ip administered 30 mins prior to carrageenan-challenge measured after 2 hrs relative to control; assay type: functional; conditions: route intraperitoneal
[2] = tested on: Candida albicans; experiment: Antimicrobial activity against Candida albicans MTCC 3017 assessed as growth inhibition after 24 hrs by agar well diffusion method; assay type: functional; conditions: MTCC 3017, 24 h
[3] = tested on: Pseudomonas aeruginosa; conditions: MTCC 741, 4 mg/ml
Description: Antimicrobial activity against Pseudomonas aeruginosa MTCC 741 assessed as growth inhibition at 4 mg/ml after 24 hrs by agar well diffusion method

[4] = tested on: Staphylococcus aureus; experiment: Antimicrobial activity against Staphylococcus aureus MTCC 96 assessed as growth inhibition at 4 mg/ml after 24 hrs by agar well diffusion method; assay type: functional; conditions: for zone of inhibition at 4000 µg/mL: MTCC 96, 24 h, read-out: DIZ
[5] = tested on: Candida albicans; experiment: Antimicrobial activity against Candida albicans MTCC 3017 assessed as growth inhibition at 4 mg/ml after 24 hrs by agar well diffusion method; assay type: functional; conditions: MTCC 3017, 24 h, read-out: DIZ
[6] = tested on: Staphylococcus aureus; experiment: Antimicrobial activity against Staphylococcus aureus MTCC 96 assessed as growth inhibition after 24 hrs by agar well diffusion method; assay type: functional
[7] = tested on: Bacillus subtilis; experiment: Antimicrobial activity against Bacillus subtilis MTCC 121 assessed as growth inhibition at 4 mg/ml after 24 hrs by agar well diffusion method; assay type: functional; conditions: for zone of inhibition at 4000 µg/mL: MTCC 121, 24 h, read-out: DIZ
[8] = tested on: Rattus norvegicus; experiment: Antiinflammatory activity against carrageenan-induced paw edema male Wistar albino rat assessed as edema volume at 50 mg/kg, po administered 30 mins prior to carrageenan-challenge measured after 1 hr (reference value: 1.11 +/- 0.12 mL); assay type: functional
[9] = tested on: Rattus norvegicus; experiment: Antiinflammatory activity against carrageenan-induced paw edema male Wistar albino rat assessed as edema volume at 50 mg/kg, ip administered 30 mins prior to carrageenan-challenge measured after 2 hrs (reference value: 1.21 +/- 0.16 mL); assay type: functional; conditions: route intraperitoneal
[10] = tested on: Rattus norvegicus; experiment: Antiinflammatory activity against carrageenan-induced paw edema male Wistar albino rat at 50 mg/kg, ip administered 30 mins prior to carrageenan-challenge measured after 3 hrs relative to control; assay type: functional; conditions: route intraperitoneal
[11] = tested on: Escherichia coli; experiment: Antimicrobial activity against Escherichia coli MTCC 1652 assessed as growth inhibition at 4 mg/ml after 24 hrs by agar well diffusion method; assay type: functional, organism-based
[12] = tested on: Rattus norvegicus; experiment: Antiinflammatory activity against carrageenan-induced paw edema male Wistar albino rat assessed as edema volume at 50 mg/kg, ip administered 30 mins prior to carrageenan-challenge measured after 4 hrs (reference value: 1.88 +/- 0.20 mL); assay type: functional; conditions: route intraperitoneal
[13] = tested on: Bacillus subtilis; experiment: Antimicrobial activity against Bacillus subtilis MTCC 121 assessed as growth inhibition after 24 hrs by agar well diffusion method; assay type: functional
[14] = tested on: Saccharomyces cerevisiae; experiment: Antimicrobial activity against Saccharomyces cerevisiae MTCC 170 assessed as growth inhibition at 4 mg/ml after 24 hrs by agar well diffusion method; assay type: functional; conditions: for zone of inhibition at 4000 µg/mL: MTCC 170, 24 h, read-out: DIZ
[15] = tested on: Rattus norvegicus; experiment: Antiinflammatory activity against carrageenan-induced paw edema male Wistar albino rat assessed as edema volume at 50 mg/kg, ip administered 30 mins prior to carrageenan-challenge measured after 3 hrs (reference value: 1.73 +/- 0.09 mL); assay type: functional; conditions: route intraperitoneal
[16] = tested on: Rattus norvegicus; experiment: Antiinflammatory activity against carrageenan-induced paw edema male Wistar albino rat at 50 mg/kg, ip administered 30 mins prior to carrageenan-challenge measured after 4 hrs relative to control; assay type: functional; conditions: route intraperitoneal
[17] = tested on: Saccharomyces cerevisiae; experiment: Antimicrobial activity against Saccharomyces cerevisiae MTCC 170 assessed as growth inhibition after 24 hrs by agar well diffusion method; assay type: functional
[18] = tested on: Rattus norvegicus; experiment: Antiinflammatory activity against carrageenan-induced paw edema male Wistar albino rat at 50 mg/kg, ip administered 30 mins prior to carrageenan-challenge measured after 1 hr relative to control; assay type: functional; conditions: route intraperitoneal

SMILES | Activity [1] [%] | MIC [2] [µg/mL] | DIZ [3] | diameter of the inhibition zone (DIZ) [4] | zone of inhibition at 4000 µg/mL [5] [mm] | MIC [6] | Activity [8] [mL] | Activity [9] [mL] | Activity [10] [%] | diameter of the inhibition zone (DIZ) [11] | Activity [12] [mL] | diameter of the inhibition zone (DIZ) [14] | Activity [15] [mL] | Activity [16] [%] | MIC [17] | Activity [18] [%] | zone of inhibition at 4000 µg/mL [7] [mm] | MIC ([13]; MTCC 121, 24 h) [µg/mL] | zone of inhibition at 4000 µg/mL [14] [mm] | MIC ([17]; MTCC 170, 24 h) [µg/mL] | further results
CCOC(=O)c1sc(-c2cn(-c3ccccc3)nc2-c2ccc(F)cc2)nc1-c1ccc(Cl)cc1 | 81.81 | 50 (≈ 99.2 µM) | inactive | inactive | 17.6 | inactive | 0.17 | 0.22 | 80.34 | inactive | 0.26 | inactive | 0.34 | 86.17 | inactive | 84.68 |  |  |  |  | diameter of the inhibition zone (DIZ) [7]: inactive; MIC [13]: inactive
COc1ccc(-c2nn(-c3ccccc3)cc2-c2nc(-c3ccc(F)cc3)c(C(=O)O)s2)cc1 | 81.81 | 50 (≈ 106 µM) | inactive |  | 12 |  | 0.19 | 0.22 | 82.08 | inactive | 0.18 |  | 0.31 | 90.42 |  | 82.88 | 12 | 50 (≈ 106 µM) | 15.3 | 50 (≈ 106 µM) | zone of inhibition at 4000 µg/mL [4]: 12 mm; MIC ([6]; MTCC 96, 24 h): 50 µg/mL (≈ 106 µM)
C[C@@H]1[C@H](O)[C@@H](C)/C=C/C=C/C=C/C=C/C=C/C=C/C=C/[C@H](O[C@@H]2O[C@H](C)[C@@H](O)[C@H](N)[C@@H]2O)C[C@@H]2O[C@](O)(C[C@@H](O)C[C@@H](O)[C@H](O)CC[C@@H](O)C[C@@H](O)CC(=O)O[C@H]1C)C[C@H](O)[C@H]2C(=O)O [AMPHOTERICIN B] |  | 6.25 (≈ 6.76 µM) |  |  | 16.6 |  |  |  |  |  |  |  |  |  |  |  |  |  | 19.3 | 6.25 (≈ 6.76 µM) | 
CCOC(=O)c1sc(-c2cn(-c3ccccc3)nc2-c2ccc(OC)cc2)nc1-c1ccc(Cl)cc1 | 68.59 | 50 (≈ 96.9 µM) | inactive | inactive | 14.3 | inactive | 0.15 | 0.38 | 78.03 | inactive | 0.53 | inactive | 0.38 | 71.8 | inactive | 86.48 | 14.3 | 50 (≈ 96.9 µM) |  |  | 
CCOC(=O)c1sc(-c2cn(-c3ccccc3)nc2-c2ccc(F)cc2)nc1-c1ccccc1 | 73.55 | 50 (≈ 106 µM) | inactive | inactive | 16.6 | inactive | 0.26 | 0.32 | 80.92 | inactive | 0.45 | inactive | 0.33 | 76.06 | inactive | 76.57 |  |  |  |  | diameter of the inhibition zone (DIZ) [7]: inactive; MIC [13]: inactive
CCOC(=O)c1sc(-c2cn(-c3ccccc3)nc2-c2ccc(OC)cc2)nc1-c1ccccc1 | 83.47 | 25 (≈ 51.9 µM) | inactive | inactive | 18.3 | inactive | 0.11 | 0.2 | 80.92 | inactive | 0.24 | inactive | 0.33 | 90.95 | inactive | 90.19 | 15 | 50 (≈ 104 µM) |  |  | 
CCOC(=O)c1sc(-c2cn(-c3ccccc3)nc2-c2ccc(Cl)cc2)nc1-c1ccccc1 | 81.81 | 50 (≈ 103 µM) | inactive | inactive | 16 | inactive | 0.12 | 0.22 | 81.5 | inactive | 0.28 | inactive | 0.32 | 85.1 | inactive | 89.89 | 12 | 50 (≈ 103 µM) |  |  | 
O=C(O)c1sc(-c2cn(-c3ccccc3)nc2-c2ccccc2)nc1-c1ccc(Cl)cc1 | 82.64 | 50 (≈ 109 µM) | inactive |  | 17.6 |  | 0.14 | 0.21 | 88.43 | inactive | 0.22 |  | 0.2 | 88.29 |  | 87.38 | 17.6 | 50 (≈ 109 µM) | 20.6 | 25 (≈ 54.6 µM) | zone of inhibition at 4000 µg/mL [4]: 21 mm; MIC ([6]; MTCC 96, 24 h): 25 µg/mL (≈ 54.6 µM)
O=C(O)c1sc(-c2cn(-c3ccccc3)nc2-c2ccccc2)nc1-c1ccccc1 | 67.76 | 50 (≈ 118 µM) | inactive |  | 17.6 |  | 0.24 | 0.39 | 83.81 | inactive | 0.3 |  | 0.28 | 84.04 |  | 87.37 | 18.6 | 25 (≈ 59 µM) | 23.6 | 12.5 (≈ 29.5 µM) | zone of inhibition at 4000 µg/mL [4]: 24.6 mm; MIC ([6]; MTCC 96, 24 h): 12.5 µg/mL (≈ 29.5 µM)
O=C(O)c1sc(-c2cn(-c3ccccc3)nc2-c2ccc(Cl)cc2)nc1-c1ccc(Cl)cc1 | 80.99 | 12.5 (≈ 25.4 µM) | inactive | inactive | 23.6 | inactive | 0.26 | 0.23 | 75.14 | inactive | 0.28 |  | 0.43 | 85.1 |  | 76.57 | 16.6 | 50 (≈ 102 µM) | 24.6 | 12.5 (≈ 25.4 µM) | 
COc1ccc(-c2nc(-c3cn(-c4ccccc4)nc3-c3ccc(F)cc3)sc2C(=O)O)cc1 | 66.94 | 50 (≈ 106 µM) | inactive |  | 15.3 |  | 0.22 | 0.4 | 67.63 | inactive | 0.36 |  | 0.56 | 80.85 |  | 80.18 | 14.6 | 50 (≈ 106 µM) | 15.3 | 50 (≈ 106 µM) | zone of inhibition at 4000 µg/mL [4]: 20.6 mm; MIC ([6]; MTCC 96, 24 h): 25 µg/mL (≈ 53 µM)
CCOC(=O)c1sc(-c2cn(-c3ccccc3)nc2-c2ccc(OC)cc2)nc1-c1ccc(OC)cc1 | 84.29 | 50 (≈ 97.7 µM) |  |  | 16.6 |  | 0.15 | 0.19 | 84.39 |  | 0.17 | inactive | 0.27 | 90.95 | inactive | 86.48 |  |  |  |  | zone of inhibition at 4000 µg/mL [4]: 15 mm; MIC ([6]; MTCC 96, 24 h): 50 µg/mL (≈ 97.7 µM); diameter of the inhibition zone (DIZ) [7]: inactive; MIC [13]: inactive
